Molecules are shown by their SMILES.

The text below walks through data of US9856207B2, “Process for the production of ralfinamide salts substantially free from impurities having genotoxic effects” (Newron Pharmaceuticals S.p.A., priority 2010, dated 2018).

Holding throughout (assay type): physicochemical
The nature of data set [1]: Intrinsic Dissolution Rate (IDR) measurement according to USP General Chapter <1087>. To be noted: ralfinamide methanesulfonate solid forms, USP <1087>. How it is done:
Intrinsic dissolution rate is characteristic of each solid compound in a given solvent under fixed hydrodynamic conditions. The knowledge of this value helps in predicting if absorption would be dissolution rate-limited. The Intrinsic Dissolution Rate (IDR) measurement of ralfinamide methanesulfonate form A and H was performed according to USP General Chapter <1087>.

A short description of data set [2]: Exposure of form A crystals to air stream of high relative humidity (water uptake, solid form conversion). The note with it: 97% RH air stream at 25° C. for two months. The text has this: As an alternative procedure to the slurring with water for converting anhydrous form A crystals containing undesired amounts of genotoxic impurities and/or of the residual solvents known as potential precursors thereof into the corresponding hemihydrate pseudopolymorph form H substantially free from the genotoxic impurities and/or the residual solvents known as potential precursors thereof, the capability of anhydrous form A crystals to uptake water from air having high degree of relative humidity may be exploited. For example, full conversion of form A crystals into the corresponding hemihydrate pseudopolymorph form H crystals can be achieved by keeping a batch of ralfinamide methanesulfonate or its R-enantiomer form A crystals under air stream having relative humidity higher than 65% at a temperature from 5° C. to 30° C. for a period of time which may vary from days to weeks or months, depending on the relative humidity degree and the temperature.

Data set [3] in a line: Solubility of the free base in water. To be noted: also at 100° C. How it is done: According to a preferred method to carry out the procedure defined above as “salt formation”, the formation of ralfinamide methanesulfonate form H or its R-enantiomer is carried out by using water as the sole solvent in which the free base and the methanesulfonic acid are contacted in substantially equimolecular proportion. According to a more preferred method, methanesulfonic acid is added to a suspension or emulsion of the free base in water. Generally 50-70 percent of the stoichiometric amount of the acid is initially added. […] The remaining portion of methanesulfonic acid to complete the stoichiometric amount required for the salification, or a small excess or defect (in both cases of up to 3 molar %), is subsequently added to the obtained solution. […] Therefore, it would not be possible to apply prior to the addition of the acid, any purification method implying the treatment of a solution of the free base with active charcoal or inert powder followed by filtration to remove small particles and/or impurities. […] The complementary amount of acid may be added soon after this treatment of the solution, preferably, after lowering the temperature of the mixture below 70° C.

`CS(=O)(=O)O.C[C@H](NCc1ccc(OCc2ccccc2F)cc1)C(N)=O` [Anhydrous form A, (S)-2-[4-(2-fluorobenzyloxy)benzylamino]propanamide methanesulfonate]: the “Intrinsic Dissolution Rate” value in data set [1] is 1.527 ± 0.265 mg · cm−2 · min−1. Further, in data set [2], the “Solid form stability under humid air” value was “fully converted into the form H”.

`C[C@@H](NCc1ccc(OCc2ccccc2F)cc1)C(N)=O` [R-enantiomer, (R)-2-[4-(2-fluorobenzyloxy)benzylamino]propanamide]: the Solubility in water entry in data set [3] is listed as “practically insoluble in water”.

As to `C[C@H](NCc1ccc(OCc2ccccc2F)cc1)C(N)=O` [Ralfinamide free base, (S)-2-[4-(2-fluorobenzyloxy)benzylamino]propanamide], in data set [3], the Solubility in water entry is reported as “practically insoluble in water”.

Regarding `CS(=O)(=O)O.C[C@H](NCc1ccc(OCc2ccccc2F)cc1)C(N)=O` [Hemihydrate form H, (S)-2-[4-(2-fluorobenzyloxy)benzylamino]propanamide methanesulfonate], the “Intrinsic Dissolution Rate” value in data set [1] amounted to 0.857 ± 0.012 mg · cm−2 · min−1.
